{"source": "patent US20250115620A1", "about": "“BRIDGED TRICYCLIC CARBAMOYLPYRIDONE COMPOUNDS AND USES THEREOF” (Gilead Sciences, Inc., priority 2022, published 2025)", "key": {"in vitro": {"test": "in vitro", "conditions": "human; for CC50 at 5 days: uninfected MT-4 cells", "experimental": "Compounds were serially diluted (1:3) in DMSO on 384-well polypropylene plates and further diluted 200-fold into complete RPMI media (10% FBS, 1% P/S) using the Biotek Micro Flow and Labcyte ECHO acoustic dispenser. […] Infected and uninfected MT-4 cells were further diluted in complete RPMI media and added to each plate using a Micro Flow dispenser. After 5 days incubation in a humidified and temperature controlled incubator (37° C.), Cell Titer Glo (Promega) was added to the assay plates and chemiluminescence read using an Envision plate-reader.\nAssays were performed as above except uninfected MT-4 cells were added to each well containing test compound. In addition, 10 μM puromycin was added to the last column of each assay plate to assess a base level of cytotoxicity."}, "pLAI reporter virus": {"tested_on": "pLAI reporter virus", "test": "microbe, parasite or virus in culture", "type": "cell-based, HIV", "conditions": "Human immunodeficiency virus 1, MT4, 72 h"}, "HIV-1 (IIIB)": {"tested_on": "HIV-1 (IIIB)", "test": "microbe, parasite or virus in culture", "type": "cell-based", "conditions": "Human immunodeficiency virus 1, IIIB, MT4, 120 h, read-out: MT4 EC50"}, "[1]": {"conditions": "HIV-1 (IIIB) in MT-4 cells, 5 days incubation, Cell Titer Glo"}}, "note": "Like-named read-outs stand apart in the source and are kept apart here."}
{"smiles": "C[C@H]1CC[C@]2(CC(Br)=NO2)[C@H]2CN1C(=O)c1c(O)c(=O)c(C(=O)NCc3ccc(F)cc3F)cn12", "note": "[Example 44, (3′S,5S,7′R)-3-bromo-N-(2,4-difluorobenzyl)-12′-hydroxy-3′-methyl-1′,11′-dioxo-1′,4′,5′,11′-tetrahydro-3′H,4H,7′H-spiro[isoxazole-5,6′-[2,7]methanopyrido[1,2-a][1,4]diazonine]-10′-carboxamide]", "values": [{"measurement": "CC50 at 5 days", "setting": "in vitro", "result": 24.4, "unit": "µM"}, {"measurement": "EC50", "setting": "pLAI reporter virus; read-out: RLUC 50% HS EC50", "result": 0.16, "unit": "µM"}, {"measurement": "EC50", "setting": "pLAI reporter virus; read-out: RLUC CCM EC50", "result": 0.0001, "unit": "µM"}, {"measurement": "EC50", "setting": "HIV-1 (IIIB); [1]", "result": 0.0007, "unit": "µM"}]}
{"smiles": "C[C@H]1CC[C@]2(COC(F)(F)O2)[C@H]2CN1C(=O)c1c(O)c(=O)c(C(=O)NCc3c(F)cc(F)cc3F)cn12", "note": "[Example 141, (3′S,4R,7′R)-2,2-difluoro-12′-hydroxy-3′-methyl-1′,11′-dioxo-N-(2,4,6-trifluorobenzyl)-1′,4′,5′,11′-tetrahydro-3′H,7′H-spiro[[1,3]dioxolane-4,6′-[2,7]methanopyrido[1,2-a][1,4]diazonine]-10′-carboxamide]", "values": [{"measurement": "CC50 at 5 days", "setting": "in vitro", "result": 30.4, "unit": "µM"}, {"measurement": "EC50", "setting": "pLAI reporter virus; read-out: RLUC 50% HS EC50", "result": 0.263, "unit": "µM"}, {"measurement": "EC50", "setting": "pLAI reporter virus; read-out: RLUC CCM EC50", "result": 0.0002, "unit": "µM"}, {"measurement": "EC50", "setting": "HIV-1 (IIIB); [1]", "result": 0.0009, "unit": "µM"}]}
{"smiles": "C[C@H]1CC[C@]2(CC(=O)NO2)[C@H]2CN1C(=O)c1c(O)c(=O)c(C(=O)NCc3ccc(F)cc3F)cn12", "note": "[Example 156, (3′S,5S,7′R)—N-(2,4-difluorobenzyl)-12′-hydroxy-3′-methyl-1′,3,11′-trioxo-1′,4′,5′,11′-tetrahydro-3′H,7′H-spiro[isoxazolidine-5,6′-[2,7]methanopyrido[1,2-a][1,4]diazonine]-10′-carboxamide]", "values": [{"measurement": "CC50 at 5 days", "setting": "in vitro", "result": "≥ 50", "unit": "µM"}, {"measurement": "EC50", "setting": "pLAI reporter virus; read-out: RLUC 50% HS EC50", "result": 0.0798, "unit": "µM"}, {"measurement": "EC50", "setting": "pLAI reporter virus; read-out: RLUC CCM EC50", "result": 0.025, "unit": "µM"}, {"measurement": "EC50", "setting": "HIV-1 (IIIB); [1]", "result": 0.0181, "unit": "µM"}]}
{"smiles": "C[C@H]1CC[C@@]2(COC(C)(C)O2)[C@H]2CN1C(=O)c1c(O)c(=O)c(C(=O)NCc3c(F)cc(F)cc3F)cn12", "note": "[Example 138, (3′S,4S,7′R)-12′-hydroxy-2,2,3′-trimethyl-1′,11′-dioxo-N-(2,4,6-trifluorobenzyl)-1′,4′,5′,11′-tetrahydro-3′H,7′H-spiro[[1,3]dioxolane-4,6′-[2,7]methanopyrido[1,2-a][1,4]diazonine]-10′-carboxamide]", "values": [{"measurement": "CC50 at 5 days", "setting": "in vitro", "result": 23.2, "unit": "µM"}, {"measurement": "EC50", "setting": "pLAI reporter virus; read-out: RLUC 50% HS EC50", "result": 0.0131, "unit": "µM"}, {"measurement": "EC50", "setting": "pLAI reporter virus; read-out: RLUC CCM EC50", "result": 0.0005, "unit": "µM"}, {"measurement": "EC50", "setting": "HIV-1 (IIIB); [1]", "result": 0.002, "unit": "µM"}]}
{"smiles": "C[C@H]1CC[C@]2(CC(=O)N(Cc3ccc4c(cnn4C)c3)O2)[C@H]2CN1C(=O)c1c(O)c(=O)c(C(=O)NCc3c(F)cc(F)cc3F)cn12", "note": "[Example 103, (3′S,5S,7′R)-12′-hydroxy-3′-methyl-2-((1-methyl-1H-indazol-5-yl)methyl)-1′,3,11′-trioxo-N-(2,4,6-trifluorobenzyl)-1′,4′,5′,11′-tetrahydro-3′H,7′H-spiro[isoxazolidine-5,6′-[2,7]methanopyrido[1,2-a][1,4]diazonine]-10′-carboxamide]", "values": [{"measurement": "CC50 at 5 days", "setting": "in vitro", "result": "≥ 50", "unit": "µM"}, {"measurement": "EC50", "setting": "pLAI reporter virus; read-out: RLUC 50% HS EC50", "result": 0.0004, "unit": "µM"}, {"measurement": "EC50", "setting": "pLAI reporter virus; read-out: RLUC CCM EC50", "result": 0.0002, "unit": "µM"}, {"measurement": "EC50", "setting": "HIV-1 (IIIB); [1]", "result": 0.0015, "unit": "µM"}]}
{"smiles": "CC1=NO[C@@]2(CC[C@H](C)N3C[C@H]2n2cc(C(=O)NCc4ncc(F)c(Cl)c4F)c(=O)c(O)c2C3=O)C1", "note": "[Example 150, (3′S,5S,7′R)—N-((4-chloro-3,5-difluoropyridin-2-yl)methyl)-12′-hydroxy-3,3′-dimethyl-1′,11′-dioxo-1′,4′,5′,11′-tetrahydro-3′H,4H,7′H-spiro[isoxazole-5,6′-[2,7]methanopyrido[1,2-a][1,4]diazonine]-10′-carboxamide]", "values": [{"measurement": "CC50 at 5 days", "setting": "in vitro", "result": 27, "unit": "µM"}, {"measurement": "EC50", "setting": "HIV-1 (IIIB)", "result": 0.0021, "unit": "µM"}]}
{"smiles": "CC1=NO[C@@]2(CC[C@H](C)N3C[C@H]2n2cc(C(=O)NCc4c(F)cc(F)cc4F)c(=O)c(O)c2C3=O)S1", "note": "[Example 146, (3′S,5S,7′R)-12′-hydroxy-3,3′-dimethyl-1′,11′-dioxo-N-(2,4,6-trifluorobenzyl)-1′,4′,5′,11′-tetrahydro-3′H,7′H-spiro[[1,4,2]oxathiazole-5,6′-[2,7]methanopyrido[1,2-a][1,4]diazonine]-10′-carboxamide]", "values": [{"measurement": "CC50", "setting": "in vitro", "result": 16.9, "unit": "µM"}, {"measurement": "EC50", "setting": "HIV-1 (IIIB)", "result": 0.0013, "unit": "µM"}]}
{"smiles": "CC1=NO[C@@]2(CC[C@H](C)N3C[C@H]2n2cc(-c4nnc(Cc5c(F)cc(F)cc5F)s4)c(=O)c(O)c2C3=O)C1", "note": "[Example 152, (3′S,5S,7′R)-12′-hydroxy-3,3′-dimethyl-10′-(5-(2,4,6-trifluorobenzyl)-1,3,4-thiadiazol-2-yl)-4′,5′-dihydro-3′H,4H,7′H-spiro[isoxazole-5,6′-[2,7]methanopyrido[1,2-a][1,4]diazonine]-1′,11′-dione]", "values": [{"measurement": "CC50 at 5 days", "setting": "in vitro", "result": 14.2, "unit": "µM"}, {"measurement": "EC50", "setting": "HIV-1 (IIIB)", "result": 0.0042, "unit": "µM"}]}
{"smiles": "CC1=NOC2(CC[C@H](C)N3C[C@H]2n2cc(C(=O)NCc4ccc(F)cc4F)c(=O)c(O)c2C3=O)N1N(C)C", "note": "(stereo partly drawn) [Example 95, (3′S,7′R)—N-(2,4-difluorobenzyl)-4-(dimethylamino)-12′-hydroxy-3,3′-dimethyl-1′,11′-dioxo-1′,4′,5′,11′-tetrahydro-3′H,4H,7′H-spiro[[1,2,4]oxadiazole-5,6′-[2,7]methanopyrido[1,2-a][1,4]diazonine]-10′-carboxamide]", "values": [{"measurement": "CC50", "setting": "in vitro", "result": 24.1, "unit": "µM"}, {"measurement": "EC50", "setting": "HIV-1 (IIIB)", "result": 0.0006, "unit": "µM"}]}
{"smiles": "C[C@H]1OC[C@]2(CC[C@H](C)N3C[C@H]2n2cc(C(=O)NCc4c(F)cc(F)cc4F)c(=O)c(O)c2C3=O)O1", "note": "[Example 132, (2S,3′S,4R,7′R)-12′-hydroxy-2,3′-dimethyl-1′,11′-dioxo-N-(2,4,6-trifluorobenzyl)-1′,4′,5′,11′-tetrahydro-3′H,7′H-spiro[[1,3]dioxolane-4,6′-[2,7]methanopyrido[1,2-a][1,4]diazonine]-10′-carboxamide]", "values": [{"measurement": "CC50 at 5 days", "setting": "in vitro", "result": 30.3, "unit": "µM"}, {"measurement": "EC50", "setting": "HIV-1 (IIIB); [1]", "result": 0.0014, "unit": "µM"}]}
{"smiles": "CCn1c(CN2O[C@@]3(CC[C@H](C)N4C[C@H]3n3cc(C(=O)NCc5c(F)cc(F)cc5F)c(=O)c(O)c3C4=O)CC2=O)nc2ccccc21", "note": "[Example 164, (3′S,5S,7′R)-2-((1-ethyl-1H-benzo[d]imidazol-2-yl)methyl)-12′-hydroxy-3′-methyl-1′,3,11′-trioxo-N-(2,4,6-trifluorobenzyl)-1′,4′,5′,11′-tetrahydro-3′H,7′H-spiro[isoxazolidine-5,6′-[2,7]methanopyrido[1,2-a][1,4]diazonine]-10′-carboxamide]", "values": [{"measurement": "CC50 at 5 days", "setting": "in vitro", "result": 45.7, "unit": "µM"}, {"measurement": "EC50", "setting": "HIV-1 (IIIB); [1]", "result": 0.003, "unit": "µM"}]}
{"smiles": "COCC1=NO[C@@]2(CC[C@H](C)N3C[C@H]2n2cc(C(=O)NCc4ccc(F)cc4F)c(=O)c(O)c2C3=O)C1", "note": "[Example 22, (3′S,5S,7′R)—N-(2,4-difluorobenzyl)-12′-hydroxy-3-(methoxymethyl)-3′-methyl-1′,11′-dioxo-1′,4′,5′,11′-tetrahydro-3′H,4H,7′H-spiro[isoxazole-5,6′-[2,7]methanopyrido[1,2-a][1,4]diazonine]-10′-carboxamide]", "values": [{"measurement": "CC50 at 5 days", "setting": "in vitro", "result": 23.7, "unit": "µM"}, {"measurement": "EC50", "setting": "HIV-1 (IIIB); [1]", "result": 0.0013, "unit": "µM"}]}
{"smiles": "C[C@H]1CC[C@]2(CNC(=O)C2)[C@H]2CN1C(=O)c1c(O)c(=O)c(C(=O)NCc3c(F)cc(F)cc3F)cn12", "note": "[Example 58, (3S,3′S,7′S)-12′-hydroxy-3′-methyl-1′,5,11′-trioxo-N-(2,4,6-trifluorobenzyl)-1′,4′,5′,11′-tetrahydro-3′H,7′H-spiro[pyrrolidine-3,6′-[2,7]methanopyrido[1,2-a][1,4]diazonine]-10′-carboxamide]", "values": [{"measurement": "CC50 at 5 days", "setting": "in vitro", "result": "≥ 50", "unit": "µM"}, {"measurement": "EC50", "setting": "HIV-1 (IIIB); [1]", "result": 0.0774, "unit": "µM"}]}
{"smiles": "C[C@H]1CC[C@@]2(CNC(=O)O2)[C@H]2CN1C(=O)c1c(O)c(=O)c(C(=O)NCc3c(F)cc(F)cc3F)cn12", "note": "[Example 59, (3′S,5R,7′R)-12′-hydroxy-3′-methyl-1′,2,11′-trioxo-N-(2,4,6-trifluorobenzyl)-1′,4′,5′,11′-tetrahydro-3′H,7′H-spiro[oxazolidine-5,6′-[2,7]methanopyrido[1,2-a][1,4]diazonine]-10′-carboxamide]", "values": [{"measurement": "CC50 at 5 days", "setting": "in vitro", "result": "≥ 50", "unit": "µM"}, {"measurement": "EC50", "setting": "HIV-1 (IIIB); [1]", "result": 0.0514, "unit": "µM"}]}
